# According to patent publication US8569316B2, “Pyrimido [5,4-D] pyrimidine derivatives for the inhibition of tyrosine kinases” (Boehringer Ingelheim International GmbH, priority 2009, dated 2013):
# Biological target: B-Raf (V600E)-kinase (Homo sapiens (Human), UniProt P15056, V600E)
# Experiment: Kinase test B-Raf (V600E)
# Type: biochemical
# Details: 250 μM ATP, biotinylated MEK1 substrate
# Protocol: In a dilution series 10 μL of test substance solution are placed in a multiwell plate. The dilution series is selected so that generally a range of concentrations of 2 μM to 0.128 nM or 0.017 nM is covered. If necessary the initial concentration of 2 μM is changed to 50 μM, 10 μM or 0.4 μM or 0.2857 μM and further dilution is carried out accordingly. The final concentration of DMSO is 5%. 10 μL of the B-Raf (V600E)-kinase solution are pipetted in (containing 0.5 ng B-Raf (V600E)-kinase in 20 mM Tris-HCl pH 7.5, 0.1 mM EDTA, 0.1 mM EGTA, 0.286 mM sodium orthovanadate, 10% glycerol, 1 mg/mL bovine serum albumin, 1 mM dithiothreitol) and the mixture is incubated for 1 h at RT under with shaking. The kinase reaction is started by the addition of 20 μL ATP solution [final concentration: 250 μM ATP, 30 mM Tris-HCl pH 7.5, 0.02% Brij, 0.2 mM sodium orthovanadate, 10 mM magnesium acetate, phosphatase cocktail (Sigma, #P2850, dilution recommended by the manufacturer), 0.1 mM EGTA] and 10 μL MEK1 solution [containing 50 ng biotinylated MEK1 (prepared from purified MEK1 according to standard procedure, e.g. with EZ-Link Sulpho-NHS-LC-Biotin reagent, Pierce, #21335) in 50 mM Hepes pH 7.5, 150 mM NaCl, 10% glycerol, 0.02% Brij-35, 0.2 mM PMSF, 0.2 mM benzamidine] and carried out for 60 min at RT with constant shaking. The reaction is stopped by the addition of 12 μL of a 100 mM EDTA solution and incubation is continued for a further 5 min. 55 μL of the reaction solution are transferred into a streptavidin-coated plate (e.g. Streptawell HighBond, Roche, #11989685001) and shaken gently for 1 h at RT, in order to bind biotinylated MEK1 to the plate. After elimination of the liquid the plate is washed five times with 200 μL of 1×PBS and 100 μL solution of primary antibody plus europium-labelled secondary antibody [Anti Phospho-MEK (Ser217/221), Cell Signaling, #9121 and Eu-N1 labeled goat-anti-rabbit antibody, Perkin Elmer, #AD0105], the primary antibody is diluted 1:2000 and the secondary antibody is diluted to 0.4-0.5 μg/mL in Delfia Assay Buffer (Perkin Elmer, #1244-111). After 1 h shaking at RT the solution is poured away and washed five times with 200 μL Delfia Wash Buffer (Perkin Elmer, #4010-0010/#1244-114). After the addition of 200 μL Enhancement Solution (Perkin Elmer, #4001-0010/#1244-105) the mixture is shaken for 10 min at RT and then measured in a Wallac Victor using the program “Delfia Time Resolved Fluorescence (Europium)”. IC50 values are obtained from these dosage-activity curves using a software program (GraphPadPrizm).
# Chain of B-Raf (V600E)-kinase (P15056 whole entry V600E): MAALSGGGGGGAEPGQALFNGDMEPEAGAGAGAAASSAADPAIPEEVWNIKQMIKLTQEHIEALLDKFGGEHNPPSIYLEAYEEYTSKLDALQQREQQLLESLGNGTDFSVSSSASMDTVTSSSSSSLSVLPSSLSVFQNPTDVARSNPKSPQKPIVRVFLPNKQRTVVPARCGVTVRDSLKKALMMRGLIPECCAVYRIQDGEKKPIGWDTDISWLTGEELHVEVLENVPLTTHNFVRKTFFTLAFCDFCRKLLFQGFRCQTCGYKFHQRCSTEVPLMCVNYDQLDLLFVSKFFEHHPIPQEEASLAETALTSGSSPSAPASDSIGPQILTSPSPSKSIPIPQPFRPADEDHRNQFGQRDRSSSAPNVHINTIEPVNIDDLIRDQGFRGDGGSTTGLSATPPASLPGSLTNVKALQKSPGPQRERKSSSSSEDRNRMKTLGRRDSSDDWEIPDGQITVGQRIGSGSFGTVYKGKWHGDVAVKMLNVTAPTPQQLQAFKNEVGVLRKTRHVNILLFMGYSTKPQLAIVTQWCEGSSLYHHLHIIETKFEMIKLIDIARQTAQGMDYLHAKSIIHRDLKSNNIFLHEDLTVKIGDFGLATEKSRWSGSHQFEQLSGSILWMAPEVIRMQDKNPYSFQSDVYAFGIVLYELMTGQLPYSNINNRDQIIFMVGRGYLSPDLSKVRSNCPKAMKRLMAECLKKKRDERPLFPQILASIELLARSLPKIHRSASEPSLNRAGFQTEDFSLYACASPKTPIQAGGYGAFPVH
row,SMILES,IC50 [nM]
1,COCCN1CCC(c2ccc3ncnc(Nc4cc(C(=O)Nc5cc(C(C)(C)C)cc(NS(C)(=O)=O)c5OC)ccc4C)c3n2)CC1 [III-36],443
2,Cc1ccc(C(=O)Nc2cc(C(C)(C)C)nn2C)cc1Nc1ncnc2ccc(N3CCOCC3)nc12 [III-6],15
3,Cc1ccc(C(=O)Nc2cc(N3CCCN(C)CC3)cc(C(F)(F)F)c2)cc1Nc1ncnc2ccc(N3CCOCC3)nc12 [III-8],5
4,COc1c(NC(=O)c2ccc(C)c(Nc3ncnc4ccc(NC5CCOC5)nc34)c2)cc(C(C)(C)C)cc1NS(C)(=O)=O (stereo not drawn) [III-21],30
5,COc1ccc(NC(=O)c2ccc(C)c(Nc3ncnc4cnc(N5CCOCC5)cc34)c2)cc1C(F)(F)F [I-1],106

# Other lines, results leading:
row,IC50 [nM],SMILES
1,583,CCCN1CCC(Cc2ccc3ncnc(Nc4cc(C(=O)Nc5cc(C(C)(C)C)cc(NS(C)(=O)=O)c5OC)ccc4C)c3n2)CC1 [III-48]
2,315,COCCN1CCC(c2ccc3ncnc(Nc4cc(C(=O)Nc5cc(C(C)(C)C)cc(NS(C)(=O)=O)c5OC)ccc4C)c3n2)C1 (stereo not drawn) [III-41]
3,170,COc1c(NC(=O)c2ccc(C)c(Nc3ncnc4ccc(CC5CCNCC5)nc34)c2)cc(C(C)(C)C)cc1NS(C)(=O)=O [III-37]
4,496,COCCN1CCC(Cc2ccc3ncnc(Nc4cc(C(=O)Nc5cc(C(C)(C)C)cc(NS(C)(=O)=O)c5OC)ccc4C)c3n2)CC1 [III-49]
